Data set [1] can be described thus: Solubility of the free acid. The class given is physicochemical.
Data set [2] can be described thus: Rat pharmacokinetics (plasma and brain, LC-MS/MS). The class given is in vivo. Conditions: PO, 100 mg/kg, mean. As to the method: Compound I was dosed to nonfasted male CD IGS rats (weighting 180-250 g, Charles River Laboratories) by single intravenous (IV, n=3/group) or oral gavage (PO, n=4/group, including control rat group for drug-free blood and brain collection) administration at a nominal dose levels of 3 mg/kg (IV) or 5 mg/kg (IV) and 10, 50, 100 mg/kg (PO) respectively. Compound was formulated in either DMSO/Solutol: HS 15/phosphate buffered saline, pH 7.4 (PBS) for both IV and PO dosing, or 10% (w/v) Povidone K12 in water for IV dosing or 10% (w/v) Povidone K25 in water for PO dosing, or 18% (w/v) CrosPovidone in water for PO dosing. An intravenous profile was obtained by taking serial or terminal blood samples at 3, 10, 30, 60, 120, 240, 360, 1440 min post dose. An oral profile was obtained by taking serial or terminal blood samples at 10, 30, 60, 120, 240, 360, 480, 1440 min post dose.
Plasma Sample Collection from Rats. Animals were sedated under general inhalant anesthesia (3% isoflurane) for blood collection by cardiac puncture. […]
Plasma and brain samples were subjected to quantitative analysis by LC-MS/MS using compound-specific mass transitions. […] The concentrations of the test compound in brain (ng/g brain tissue) and in plasma (ng/mL) as well as the ratio of the brain concentration and the plasma concentration at each time point were determined and reported.

The target in data set [3] is T1, TrkA (human full length) (Homo sapiens, UniProt P04629).
T1 construct: expressed recombinantly on the intracellular C-terminus of TrkA (human full length); host or cells: U2OS
Put plainly: PathHunter live whole cell functional assay, NGF stimulated TrkA activation. The class given is cell-based. To be noted: U2OS cell background, mean of triplicate; read-out: cellular IC50, inhibition of NGF stimulated TrkA activation. An excerpt: There are several methods to measure whole length TrkA activation stimulated by its natural ligand or agonist NGF in live cells. For example, the PathHunter Profiling services offered by DiscoveRx (Fremont, Calif.). The PathHunter technology is an adaptation of enzyme fragment complementation that provides a novel, generic functional cell-based assay format for detecting protein-protein interactions. In this cell-based assay approach, with U2OS cell background, a small peptide epitope (PK) is expressed recombinantly on the intracellular C-terminus of TrkA (human full length). This is co-expressed with a larger sequence, termed enzyme acceptor (EA) that is attached to a cytoplasmic protein SHC1 which will interact with TrkA intracellularly. NGF induced activation of TrkA receptor causes either homo- or hetero-dimerization of TrkA resulting in cross-phosphorylation. The SHC1-EA fusion protein then binds the phosphorylated TrkA receptor forcing complementation of the PK and EA fragment. This interaction generates an active beta-galactosidase enzyme, which is detected using a chemiluminescent substrate.

Data set [4] concerns the target TrkB (Homo sapiens, UniProt Q16620). Put plainly: PathHunter live whole cell functional assay, BDNF stimulated TrkB activation. The class given is cell-based. To be noted: triplicate.
The target in data set [5] is TrkC (Homo sapiens, UniProt Q16288). In words: PathHunter live whole cell functional assay, NT3 stimulated TrkC activation. The class given is cell-based. To be noted: triplicate.
The test system of data set [6] is human pancreatic cancer cells AsPC-1, MIA PaCa-2, BxPC-3, Capan-1 and Panc-1. In words: Cell viability and proliferation assay (CellTiter-Glo), pancreatic cancer cells. The class given is cell-based. Conditions: 24 h or 48 h or 96 h incubation. As to the method: (§1) To assess the chemosensitivity of tumor cells, cell viability is measured by CellTiter-Glo® Luminescent Cell Viability Assay (Promega; WI, USA) per the manufacturer's instruction. Briefly, […] to 7×10^5 cells/ml are cultured in sterile 96-well plates in the presence of increasing concentrations of the drugs (test article, 0 to 100 μM), or vehicle in RPMI medium. The plates are then incubated for 24 to 96 h, and then 100 μl of CellTiter-Glo reagent is added to lyse the cells. After a 10-min incubation at room temperature, the luminescence is recorded in a luminometer with an integration time of 1 s per well. The luminescence signals for the drug-treated cells are normalized by the luminescence signal obtained from vehicle-treated cells. As an alternative method to quantitate cell viability, the trypan blue exclusion dye method was used. Vehicle- or drug-treated cells were assayed by adding trypan blue solution (0.4% in phosphate-buffered saline [PBS]) to the culture medium. After 3 min, the number of dead cells that retained the dye is compared to the total number of cells to calculate cell viability. GraphPad Prism 5 software is used to calculate IC50 and plot effect-dose curve of drugs. Multiplate reader: EnVision 2104 (PerkinElmer). % of control variability=100*[(X(drug_treated)−L(baseline))/(H(vehicle_control)−L(baseline))]. […]
A general note: ATP-based viability assays read luminescence as a measure of living cells.

In data set [7] the test system is human liver cancer cells SK-HEP-1 and HepG2. Put plainly: Cell viability and proliferation assay (CellTiter-Glo), liver cancer cells. The class given is cell-based. Conditions: 24 h or 48 h or 96 h incubation. As for the experimental part:
as §1

Data set [8] relates to human stomach cancer cells NCI-N87. In words: Cell viability and proliferation assay (CellTiter-Glo), stomach cancer cells. The class given is cell-based. To be noted: 24 h or 48 h or 96 h incubation. As for the experimental part:
as §1

For data set [9], the system named is CFA-induced inflammatory pain. In words: Rat CFA-induced inflammatory pain model. Conditions: 50 μL of 1 mM s.c. into the paw 3 hours after CFA. The class given is in vivo. As for the experimental part:
Hyperalgesia was induced by subcutaneously injecting 50 μL of CFA (Sigma-Aldrich, St. Louis, Mo., USA) into the plantar surface of the left hind paw of the rats using a 30-gauge hypodermic needle under sevoflurane anesthesia. The classical signs of inflammation, including edema and redness, for up the last day of tests were recorded. To assess the effect of test article on CFA-induced inflammatory pain, the rats were anesthetized with sevoflurane 3 hours after CFA injection and then injected 50 μL of either 1 mM test article (n=6) or Saline (n=4) subcutaneously (S.C.) into the same site as the CFA injection, using a 30-gauge hypodermic needle under sevoflurane anesthesia, according to published method (Ueda K., et al, J Pharmacol. Sci., 2010; 112(4):438-43). Paw withdrawal latencies (thermal hyperalgesia) are measured before and at […] 2, 4, and 7 days after CFA injection. Mechanical thresholds were also measured in the same way with either Formula 1 compound (n=6) or Saline (n=4) at similar different time points (for example, 1, 3 hour and 3 days). The noxious heat and mechanical thresholds were separately measured in each group of rats. The threshold was measured 3-5 times in each rat and then averaged. Stimulus interval was 5 min.

Data set [10] relates to mechanical allodynia in CCI rats. Put plainly: Chronic constriction injury (CCI) model of neuropathic pain. The class given is in vivo, rat. Conditions: for side effects observed in dosed CCI-rats (drowsiness, motor incoordination, other abnormality): single oral dose (gabapentin 100 mg/kg). The source says: The CCI model is one of the most commonly used mono-neuropathic pain model firstly described in details by Bennett and Xie (Bennett G J, Xie Y K. Pain. 1988; 33(1):87-107). It mimics important clinical chronic pain symptoms such as mechanical allodynia and thermal hyperalgesia. Chronic constriction injury of the sciatic nerve was produced by tying four loose ligatures around the left sciatic nerve according to the method of Bennett and Xie. […] Calibrated von Frey filaments were used to determine the lowest mechanical (tactile) threshold required to evoke a brisk paw withdrawal reflex in the rat hindpaws. Rats were allowed to acclimatize in wire mesh cages for 15-20 min prior to von Frey testing. Assessment of paw withdrawal thresholds (PWTs) using von Frey filaments was undertaken prior to CCI-surgery (pre-surgery baseline on day 0). Before the drug dosing on day 14, the pre-dose baseline was recorded for each rat. […] Drug-naïve CCI-rats (n=4-6 per group) were used. The oral (PO) gavage vehicle was either 10% (w/v) Povidone K25 in water for PO dosing, or 18% (w/v) CrosPovidone in water for PO dosing, or 0.5% CMC-Na/0.1% Tween 80 in distilled water for PO dosing. The positive control gabapentin was dissolved in the vehicle and orally given at 100 mg/kg (by oral gavage). Test article was dissolved or suspended in the vehicle and orally given at 25, 50, 100 and 150 mg/kg. Each CCI-rat was administered a single oral dose of test article, gabapentin or vehicle control, 2 hours before assessment of PWT.

Data set [11] concerns mechanical allodynia in SNL rats. In words: Spinal nerve ligation (SNL) mono-neuropathic pain model. The class given is in vivo, rat. To be noted: oral administration, dose-dependent. As to the method: The surgical procedure will be performed according to the method firstly described by Kim and Chung (Kim S H, Chung J M. Pain. 1992; 50(3):355-63.). This procedure will result in tactile allodynia in the left hindpaw. […] The dose-response anti-allodynia effects of test compound: on day 14 after surgery, rats were treated with test article at one of four doses, vehicle or positive control by oral gavage, and PWT was determined by calibrated von Frey filaments at time points of 0 (right before the drug dosing, Pre-Dose Baseline), 0.5, 1, 2, 4 and 6 hr. The anti-allodynia effects of repeated administration of test article: Administration of test article was started on day 7 after surgery, once a day for 7 days. PWT was determined by calibrated von Frey filaments, 2 hour after test article dosing each day. After 7 days dosing, the measurement were continued, every other day without compound dosing for another 7 days. PWT was determined at the time points as given above.

For data set [12], the system named is human pancreatic cancer cells (PANC-1). In words: Subcutaneous xenograft tumor mouse model. The class given is in vivo. To be noted: oral 150 mg/kg, Day 7 postdose, p<0.02.
Data set [13] can be described thus: Accelerated stability tests by XRPD and Raman. To be noted: over 1 week. The class given is physicochemical. As to the method:
Approximately 2 mg of sample was gently compressed on the XRPD zero back ground single obliquely cut silica sample holder. The sample was then loaded into a D/MAX 2200 X-ray powder diffractometer (Rigaku) or a Philips X-Pert MPD diffractometer and analyzed using the following experimental conditions (Tube anode: Cu; Generator tension: 40 kV; Tube current: 40 mA; Wavelength alpha1: 1.54056 Å; Wavelength alpha2: 1.5444 Å; Start angle [2 theta]: 5; End angle [2 theta]: 50; and Continuous scan). For suspected novel forms a slightly slower scan speed was used over a range of […].
Samples were analyzed by a Nicolet Almega XR Dispersive Raman Microscope for its Raman spectrum using the following conditions (Exposure Time: 1.0 s; Acquisition No: 10; Pinhole Size: […]; Wavelength range: 2000˜300 cm^−1 (single grating); Laser: He—Ne 780 nm 100% power, Objective: 20×/0.40 or 50×/0.75 (magnifier/numerical aperture number)). Then the measured Raman spectra were corrected by baseline subtraction using the software OMNIC™ v7.3.

The source of these data is patent US10301271B2, “Crystalline forms of tyrosine kinase inhibitors and their salts” (PURDUE PHARMA L.P., priority 2014, dated 2019).

SMILES strings stand for the structures.

TrkC, sequence (Q16288 32-839): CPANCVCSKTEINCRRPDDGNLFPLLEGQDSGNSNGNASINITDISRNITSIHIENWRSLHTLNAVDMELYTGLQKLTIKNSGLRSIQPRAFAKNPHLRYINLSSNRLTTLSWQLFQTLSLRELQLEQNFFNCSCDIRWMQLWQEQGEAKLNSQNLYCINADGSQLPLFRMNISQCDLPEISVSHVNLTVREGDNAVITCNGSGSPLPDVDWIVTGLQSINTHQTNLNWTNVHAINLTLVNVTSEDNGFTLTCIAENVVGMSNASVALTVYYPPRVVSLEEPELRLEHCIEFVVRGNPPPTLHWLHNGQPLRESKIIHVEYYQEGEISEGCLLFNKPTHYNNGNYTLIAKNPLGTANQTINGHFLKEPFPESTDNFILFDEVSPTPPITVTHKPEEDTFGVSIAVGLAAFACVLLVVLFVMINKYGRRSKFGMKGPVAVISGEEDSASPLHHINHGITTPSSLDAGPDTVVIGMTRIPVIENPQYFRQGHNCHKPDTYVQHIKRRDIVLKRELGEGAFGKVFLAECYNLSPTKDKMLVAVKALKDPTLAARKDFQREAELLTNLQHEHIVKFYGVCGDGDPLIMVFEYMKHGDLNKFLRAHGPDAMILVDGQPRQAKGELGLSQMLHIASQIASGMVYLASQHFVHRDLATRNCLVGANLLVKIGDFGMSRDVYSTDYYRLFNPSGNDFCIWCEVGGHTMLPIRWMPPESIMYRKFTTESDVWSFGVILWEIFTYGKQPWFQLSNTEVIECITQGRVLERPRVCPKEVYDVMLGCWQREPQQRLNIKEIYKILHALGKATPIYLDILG
T1 sequence (P04629 33-796): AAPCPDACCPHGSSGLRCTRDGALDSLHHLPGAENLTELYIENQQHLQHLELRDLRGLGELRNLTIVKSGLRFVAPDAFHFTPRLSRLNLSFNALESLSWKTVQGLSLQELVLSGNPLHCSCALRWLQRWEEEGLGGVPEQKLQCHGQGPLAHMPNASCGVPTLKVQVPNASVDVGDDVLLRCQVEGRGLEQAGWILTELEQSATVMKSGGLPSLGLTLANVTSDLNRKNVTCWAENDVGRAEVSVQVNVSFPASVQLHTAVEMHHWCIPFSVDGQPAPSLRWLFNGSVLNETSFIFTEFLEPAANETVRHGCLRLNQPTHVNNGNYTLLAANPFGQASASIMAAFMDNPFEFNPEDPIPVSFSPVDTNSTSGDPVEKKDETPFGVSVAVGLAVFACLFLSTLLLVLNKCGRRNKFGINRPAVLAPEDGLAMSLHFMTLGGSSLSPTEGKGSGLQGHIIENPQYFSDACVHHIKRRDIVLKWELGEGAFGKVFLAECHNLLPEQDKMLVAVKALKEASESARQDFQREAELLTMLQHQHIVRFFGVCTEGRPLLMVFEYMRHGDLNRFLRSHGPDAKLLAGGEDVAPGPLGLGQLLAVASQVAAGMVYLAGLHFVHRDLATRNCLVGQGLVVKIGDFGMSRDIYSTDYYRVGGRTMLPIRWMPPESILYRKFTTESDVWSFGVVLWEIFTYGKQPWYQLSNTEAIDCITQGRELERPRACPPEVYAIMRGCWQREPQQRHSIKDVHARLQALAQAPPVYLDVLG
TrkB, sequence (Q16620 32-822): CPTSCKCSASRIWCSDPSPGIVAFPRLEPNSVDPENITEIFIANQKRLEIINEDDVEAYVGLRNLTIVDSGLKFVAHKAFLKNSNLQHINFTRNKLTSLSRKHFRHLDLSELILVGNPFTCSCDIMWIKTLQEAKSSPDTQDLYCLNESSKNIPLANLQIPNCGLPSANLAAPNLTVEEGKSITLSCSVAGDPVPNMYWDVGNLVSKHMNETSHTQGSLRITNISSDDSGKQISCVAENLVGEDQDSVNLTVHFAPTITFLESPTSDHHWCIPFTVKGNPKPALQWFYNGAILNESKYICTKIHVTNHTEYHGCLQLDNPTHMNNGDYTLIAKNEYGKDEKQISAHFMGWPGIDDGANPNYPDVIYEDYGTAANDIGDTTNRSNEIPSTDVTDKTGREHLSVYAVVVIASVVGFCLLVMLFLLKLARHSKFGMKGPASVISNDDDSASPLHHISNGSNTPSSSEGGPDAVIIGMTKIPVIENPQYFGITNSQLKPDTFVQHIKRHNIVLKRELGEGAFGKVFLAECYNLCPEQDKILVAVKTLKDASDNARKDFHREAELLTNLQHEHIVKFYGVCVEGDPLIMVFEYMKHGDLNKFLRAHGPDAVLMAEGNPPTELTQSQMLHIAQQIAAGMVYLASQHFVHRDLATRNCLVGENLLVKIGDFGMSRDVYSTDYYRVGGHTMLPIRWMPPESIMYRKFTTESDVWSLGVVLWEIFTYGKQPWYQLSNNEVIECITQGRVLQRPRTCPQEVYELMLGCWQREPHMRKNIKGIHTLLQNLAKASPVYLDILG

Take `O=C(O)c1ccc(Nc2cc(N3CCN(C4CCCCC4)CC3)c3noc4c3c2C(=O)c2ccccc2-4)cc1` [Compound 701, 4-((3-(4-cyclohexylpiperazin-1-yl)-6-oxo-6H-anthra[1,9-cd]isoxazol-5-yl)amino)benzoic acid]: the solubility result in data set [1] is “limited solubility”.
Consider `O=C([O-])c1ccc(Nc2cc(N3CCN(C4CCCCC4)CC3)c3noc4c3c2C(=O)c2ccccc2-4)cc1.[Na+]` [Compound I, Sodium 4-((3-(4-cyclohexylpiperazin-1-yl)-6-oxo-6H-anthra[1,9-cd]isoxazol-5-yl)amino)benzoate], for which the F in data set [2] is on record as approximately 100%. For the same molecule, the IC50 (usually the concentration that inhibits the measured activity by half) is approximately 0.05 µM in [3]; more than 10 µM in data set [4]; more than 10 µM in data set [5]; 2 to 5 µM in data set [6]; 2 to 8 µM in data set [7]; approximately 7 µM in data set [8]. Moreover, the “analgesic effect (thermal and mechanical thresholds, FIG. 1)” value in data set [9] is on record as “efficacious in relieving the pain”. Besides, the “reduction of mechanical allodynia (paw withdrawal threshold, von Frey, FIG. 2)” value in data set [10] (single oral dose 25, 50, 100 and 150 mg/kg, 2 hours before assessment, dose-dependent) is reported as “significantly reduced mechanical allodynia”. The “side effects observed in dosed CCI-rats (drowsiness, motor incoordination, other abnormality)” value in data set [10] was “no such effect or other abnormality was observed”. Also, the “reduction of mechanical allodynia (paw withdrawal threshold, von Frey)” value in [11] is “significantly reduced mechanical allodynia”. For the same molecule, the “tumor volume reduction compared to vehicle treated group” value in data set [12] is reported as “more than 21%”. The “solid-state stability by XRPD and Raman” value in [13] (40° C./75% RH) and in [13] (80° C.) was “no instability” throughout.
As to `NCC1(CC(=O)O)CCCCC1` [gabapentin, reference compound], in data set [10], the “side effects observed in dosed CCI-rats (drowsiness, motor incoordination, other abnormality)” value is on record as “drowsiness or motor incoordination”.
